Assay results taken from patent US9562035B2, “Benzamide derivative useful as FASN inhibitors for the treatment of cancer” (Janssen Pharmaceutica NV, priority 2013, dated 2017).

What was measured:
[1] = target: T1, hFASN enzyme (full length) (Homo sapiens, UniProt P49327); assay: Fatty Acid Synthase (FASN) Inhibition Scintillation Proximity Assay; type: biochemical; conditions: for IC50: mean where tested more than once, ~ = standard error of pIC50 larger than 0.5; for inhibition at 10 µM: read-out: FASN % Effect @1E−05M
T1 construct: 10 μL hFASN enzyme (full length, 300 ng, purified in house); made in house
Procedure, shortened: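 Eight compound concentrations (0.01–30 μM) tested in pH 7.5 phosphate buffer with DTT; human full-length enzyme converted [3H]-acetyl-CoA plus malonyl-CoA, with NADPH, over 60 min at room temperature. Hydrophobic [3H]-palmitate detected by bead proximity scintillation imaging; control-normalised data fitted for IC50/pIC50.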

A2780 ovarian cells [2] = assay: A2780 Ovarian Cell Proliferation Assay in Lipid Reduced Medium, without Palmitate; type: cell-based; conditions: Homo sapiens, A2780; lipid reduced medium, without palmitate, 96 h, MTT; read-out: Proliferation A2780 w/o Palmitate pIC50 (converted)
Procedure, shortened: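 A2780 cells were seeded in 10% FCS medium and switched next day to 10% lipid-reduced serum without palmitate. Compounds at 0.01–30 μM were added with 0.2% DMSO, 0.2% fatty-acid-free BSA and 0.25% ethanol final. After 96 h, MTT absorbance at 544 nm was normalized to plate controls, and IC50/pIC50 came from a 4-parameter logistic fit.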

A2780 ovarian cells [3] = assay: A2780 Ovarian Cell Proliferation Assay in Lipid Reduced Medium, with Palmitate (control); type: cell-based; conditions: Homo sapiens, A2780; lipid reduced medium, 25 μM palmitate, 96 h, MTT; read-out: Proliferation A2780 with Palmitate pIC50 (converted)
Procedure, shortened: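 Read-out was MTT absorbance at 544 nm after 96 h at 37 °C. Cells grown overnight in RPMI1640/10% FCS were moved to 10% lipid-reduced serum with compound plus palmitate (final 25 μM, 0.2% fatty-acid-free BSA, 0.2% DMSO). IC50 came from least-squares curve fitting, expressed as −log(IC50).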

[4] = target: T2, FASN Keto-reductase Domain (Homo sapiens, UniProt P49327); assay: Fatty Acid Synthase Keto-Reductase Domain (FASN KR) Inhibition; type: biochemical; conditions: mean where tested more than once; read-out: FASN K-R Domain pIC50 (converted)
T2 construct: 10 μL hFASN enzyme (full length, 300 ng, purified in house) and 360 μM NADPH; made in house
Procedure, shortened: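 Keto-reductase activity followed as NADPH consumption (A340 drop between 0 and 20 min, room temperature) using in-house full-length hFASN, 360 μM NADPH and ethyl acetoacetate substrate (180 mM stock), pH 7.5 phosphate buffer.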

T2 sequence (P49327 whole entry, the tested form may be a part): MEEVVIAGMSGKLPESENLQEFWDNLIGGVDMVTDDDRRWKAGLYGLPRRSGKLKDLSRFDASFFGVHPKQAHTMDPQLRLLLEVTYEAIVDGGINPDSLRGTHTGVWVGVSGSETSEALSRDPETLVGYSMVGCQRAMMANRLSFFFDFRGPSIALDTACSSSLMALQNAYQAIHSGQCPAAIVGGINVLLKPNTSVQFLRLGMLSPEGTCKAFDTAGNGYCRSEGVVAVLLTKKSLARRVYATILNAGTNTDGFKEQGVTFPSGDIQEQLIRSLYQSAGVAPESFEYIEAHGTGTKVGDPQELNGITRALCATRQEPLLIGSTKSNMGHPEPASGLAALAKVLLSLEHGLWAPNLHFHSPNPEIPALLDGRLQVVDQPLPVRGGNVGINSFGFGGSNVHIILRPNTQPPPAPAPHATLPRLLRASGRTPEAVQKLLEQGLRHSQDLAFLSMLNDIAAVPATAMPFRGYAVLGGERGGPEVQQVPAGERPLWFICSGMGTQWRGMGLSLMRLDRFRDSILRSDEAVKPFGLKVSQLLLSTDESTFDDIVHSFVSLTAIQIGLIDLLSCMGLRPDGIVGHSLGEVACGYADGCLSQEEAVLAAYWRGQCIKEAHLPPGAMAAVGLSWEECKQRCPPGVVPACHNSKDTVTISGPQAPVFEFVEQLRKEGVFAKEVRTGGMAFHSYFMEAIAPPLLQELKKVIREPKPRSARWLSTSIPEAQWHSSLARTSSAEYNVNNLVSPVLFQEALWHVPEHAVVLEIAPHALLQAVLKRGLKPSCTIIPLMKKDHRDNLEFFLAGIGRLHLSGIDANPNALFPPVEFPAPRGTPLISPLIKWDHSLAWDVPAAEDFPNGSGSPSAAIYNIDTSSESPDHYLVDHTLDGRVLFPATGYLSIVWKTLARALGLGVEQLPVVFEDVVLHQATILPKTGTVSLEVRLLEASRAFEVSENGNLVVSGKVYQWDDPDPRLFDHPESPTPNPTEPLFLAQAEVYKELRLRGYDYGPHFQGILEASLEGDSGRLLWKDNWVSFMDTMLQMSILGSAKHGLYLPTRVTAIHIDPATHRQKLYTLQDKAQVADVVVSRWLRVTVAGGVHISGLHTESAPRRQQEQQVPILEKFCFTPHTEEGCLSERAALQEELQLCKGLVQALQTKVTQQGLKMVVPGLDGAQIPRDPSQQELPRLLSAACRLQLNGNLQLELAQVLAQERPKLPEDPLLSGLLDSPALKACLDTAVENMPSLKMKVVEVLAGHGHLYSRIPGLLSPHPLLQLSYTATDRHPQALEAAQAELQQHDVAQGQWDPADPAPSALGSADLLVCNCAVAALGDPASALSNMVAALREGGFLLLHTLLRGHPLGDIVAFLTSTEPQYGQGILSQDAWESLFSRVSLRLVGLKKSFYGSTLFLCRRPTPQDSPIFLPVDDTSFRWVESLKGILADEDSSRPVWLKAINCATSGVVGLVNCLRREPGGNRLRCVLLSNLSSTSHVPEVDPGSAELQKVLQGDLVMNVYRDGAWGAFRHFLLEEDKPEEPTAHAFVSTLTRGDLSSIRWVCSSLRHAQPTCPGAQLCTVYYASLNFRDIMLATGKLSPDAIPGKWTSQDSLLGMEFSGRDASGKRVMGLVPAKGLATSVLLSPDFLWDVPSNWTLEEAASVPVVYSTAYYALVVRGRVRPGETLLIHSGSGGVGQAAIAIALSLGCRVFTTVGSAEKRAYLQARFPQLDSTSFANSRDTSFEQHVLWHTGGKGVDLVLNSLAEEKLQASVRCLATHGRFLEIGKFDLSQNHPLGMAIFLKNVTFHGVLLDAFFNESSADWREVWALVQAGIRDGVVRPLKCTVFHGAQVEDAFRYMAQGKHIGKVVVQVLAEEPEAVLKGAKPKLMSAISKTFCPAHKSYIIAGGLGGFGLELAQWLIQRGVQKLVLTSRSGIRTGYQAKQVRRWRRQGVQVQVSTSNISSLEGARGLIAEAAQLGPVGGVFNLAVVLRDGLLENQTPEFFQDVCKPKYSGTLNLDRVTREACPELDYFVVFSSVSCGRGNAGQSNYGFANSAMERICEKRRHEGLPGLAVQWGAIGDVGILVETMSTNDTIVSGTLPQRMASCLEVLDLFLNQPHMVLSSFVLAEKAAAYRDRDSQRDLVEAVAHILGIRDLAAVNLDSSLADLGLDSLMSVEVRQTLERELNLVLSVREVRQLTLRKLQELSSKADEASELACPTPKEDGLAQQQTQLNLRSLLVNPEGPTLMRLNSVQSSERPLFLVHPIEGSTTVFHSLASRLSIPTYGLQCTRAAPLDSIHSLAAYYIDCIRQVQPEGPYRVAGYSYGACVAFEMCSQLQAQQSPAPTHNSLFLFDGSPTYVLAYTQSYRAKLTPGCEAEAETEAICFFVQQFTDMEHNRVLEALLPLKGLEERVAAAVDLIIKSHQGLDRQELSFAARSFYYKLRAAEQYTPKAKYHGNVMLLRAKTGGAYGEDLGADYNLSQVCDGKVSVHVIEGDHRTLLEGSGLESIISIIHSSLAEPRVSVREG
T1 sequence (P49327 whole entry): as the sequence (P49327 whole entry, the tested form may be a part) above

IC50 [1] [nM]	inhibition at 10 µM [1] [%]	IC50 (A2780 ovarian cells [2]) [nM]	IC50 (A2780 ovarian cells [3]) [nM]	IC50 [4] [nM]	Compound
56.2	103	93.3	7240	115	Cc1ccc(C(=O)N2CC(c3ccc(-c4ccnn4C)cc3)C2)cc1NC(=O)c1ccc(N2CCN(C)CC2)nc1 [Compound 59, N-(2-methyl-5-(3-(4-(1-methyl-1H-pyrazol-5-yl)phenyl)azetidine-1-carbonyl)phenyl)-6-(4-methylpiperazin-1-yl)nicotinamide]
19.5	103	51.3	2750	28.8	Cc1ccc(C(=O)N2CC(c3ccc(-c4ccnn4C)cc3)C2)cc1NC(=O)c1ccc(N(C)C(C)C)nc1 [Compound 60, 6-(isopropyl(methyl)amino)-N-(2-methyl-5-(3-(4-(1-methyl-1H-pyrazol-5-yl)phenyl)azetidine-1-carbonyl)phenyl)nicotinamide]
15.5	103	~91.2	11000	69.2	Cc1ccc(C(=O)N2CC(c3ccc(-c4ccnn4C)cc3)C2)cc1NC(=O)c1ccc(N(C)C2CCN(C)CC2)nc1 [Compound 61, 6-(methyl(1-methylpiperidin-4-yl)amino)-N-(2-methyl-5-(3-(4-(1-methyl-1H-pyrazol-5-yl)phenyl)azetidine-1-carbonyl)phenyl)nicotinamide]
16.2	103	74.1	4170	51.3	Cc1ccc(C(=O)N2CC(c3ccc(-c4ccnn4C)cc3)C2)cc1NC(=O)c1ccc(NC2CCC2)nc1 [Compound 62, 6-(cyclobutylamino)-N-(2-methyl-5-(3-(4-(1-methyl-1H-pyrazol-5-yl)phenyl)azetidine-1-carbonyl)phenyl)nicotinamide]
27.5	100	53.7	3020	24.5	CC(C)Nc1ccc(C(=O)Nc2cc(C(=O)N3CC(c4ccc(-c5ccnc6ccccc56)cc4)C3)ccc2Cl)cn1 [Compound 63, N-(2-chloro-5-(3-(4-(quinolin-4-yl)phenyl)azetidine-1-carbonyl)phenyl)-6-(isopropylamino)nicotinamide]
20.9	99	56.2	> 10000	28.8	CC(C)Nc1ccc(C(=O)Nc2cc(C(=O)N3CC(c4ccc(-c5cnn(C)c5)cc4)C3)ccc2Cl)cn1 [Compound 65, N-(2-chloro-5-(3-(4-(1-methyl-1H-pyrazol-4-yl)phenyl)azetidine-1-carbonyl)phenyl)-6-(isopropylamino)nicotinamide]
151	92	234	240	~603	CC(C)Nc1ccc(C(=O)Nc2cc(C(=O)N3CCC(c4ccc(-c5ccc6cnccc6c5)cc4)CC3)ccc2Cl)cn1 [Compound 67, N-(2-chloro-5-(4-(4-(isoquinolin-6-yl)phenyl)piperidine-1-carbonyl)phenyl)-6-(isopropylamino)nicotinamide]
31.6	118	195	5250	64.6	CC(C)Nc1ccc(C(=O)Nc2cc(C(=O)N3CCC(c4ccc(-c5ccnc6ccccc56)cc4)CC3)ccc2Cl)cn1 [Compound 68, N-(2-chloro-5-(4-(4-(quinolin-4-yl)phenyl)piperidine-1-carbonyl)phenyl)-6-(isopropylamino)nicotinamide]
28.8	98	75.9	7590	41.7	CC(C)Nc1ccc(C(=O)Nc2cc(C(=O)N3CCC(c4ccc(-c5cnn(C)c5)cc4)CC3)ccc2Cl)cn1 [Compound 69, N-(2-chloro-5-(4-(4-(1-methyl-1H-pyrazol-4-yl)phenyl)piperidine-1-carbonyl)phenyl)-6-(isopropylamino)nicotinamide]
56.2	109	437	3550	245	CC(C)Nc1ccc(C(=O)Nc2cc(C(=O)N3CCC(c4ccc(-c5ccnn5C)cc4)CC3)ccc2Cl)cn1 [Compound 70, N-(2-chloro-5-(4-(4-(1-methyl-1H-pyrazol-5-yl)phenyl)piperidine-1-carbonyl)phenyl)-6-(isopropylamino)nicotinamide]
47.9	101	447	5250	234	CC(C)Nc1ccc(C(=O)Nc2cc(C(=O)N3CCC(c4ccc(-c5cccnc5)cc4)CC3)ccc2Cl)cn1 [Compound 71, N-(2-chloro-5-(4-(4-(pyridin-3-yl)phenyl)piperidine-1-carbonyl)phenyl)-6-(isopropylamino)nicotinamide]
39.8	110	513	2630	251	CC(C)Nc1ccc(C(=O)Nc2cc(C(=O)N3CCC(c4ccc(-c5ccncc5)cc4)CC3)ccc2Cl)cn1 [Compound 72, N-(2-chloro-5-(4-(4-(pyridin-4-yl)phenyl)piperidine-1-carbonyl)phenyl)-6-(isopropylamino)nicotinamide]
93.3	108	525	~9550	182	Cc1ccc(C(=O)N2CC(c3ccc(-c4cnn(C)c4)cc3)C2)cc1NC(=O)c1ccc2ccccc2n1 [Compound 79, N-(2-methyl-5-(3-(4-(1-methyl-1H-pyrazol-4-yl)phenyl)azetidine-1-carbonyl)phenyl)quinoline-2-carboxamide]
51.3	110	692	> 15100	234	Cc1ccc(C(=O)N2CC(c3ccc(-c4cnn(C)c4)cc3)C2)cc1NC(=O)c1ccccn1 [Compound 80, N-(2-methyl-5-(3-(4-(1-methyl-1H-pyrazol-4-yl)phenyl)azetidine-1-carbonyl)phenyl)picolinamide]
22.9	98	95.5	> 10000	85.1	Cc1ccc(C(=O)N2CC(c3ccc(-c4cnn(C)c4)cc3)C2)cc1NC(=O)c1ccccc1F [Compound 82, 2-fluoro-N-(2-methyl-5-(3-(4-(1-methyl-1H-pyrazol-4-yl)phenyl)azetidine-1-carbonyl)phenyl)benzamide]
37.2	103	234	> 10000	162	Cc1ccc(C(=O)N2CC(c3ccc(-c4cnn(C)c4)cc3)C2)cc1NC(=O)c1cccs1 [Compound 84, N-(2-methyl-5-(3-(4-(1-methyl-1H-pyrazol-4-yl)phenyl)azetidine-1-carbonyl)phenyl)thiophene-2-carboxamide]
22.4	106	182	> 10000	75.9	Cc1ccc(C(=O)N2CCC(c3ccc(-c4cnn(C)c4)cc3)CC2)cc1NC(=O)C1CCCCC1 [Compound 86, N-(2-methyl-5-(4-(4-(1-methyl-1H-pyrazol-4-yl)phenyl)piperidine-1-carbonyl)phenyl)cyclohexanecarboxamide]
182	96	575	> 10000	288	Cc1ccc(C(=O)N2CCC(c3ccc(-c4cnn(C)c4)cc3)CC2)cc1NC(=O)C(C)(C)C [Compound 87, N-(2-methyl-5-(4-(4-(1-methyl-1H-pyrazol-4-yl)phenyl)piperidine-1-carbonyl)phenyl)pivalamide]
35.5	100	209	> 10000	126	Cc1ccc(C(=O)N2CCC(c3ccc(-c4cnn(C)c4)cc3)CC2)cc1NC(=O)C1CCCC1 [Compound 88, N-(2-methyl-5-(4-(4-(1-methyl-1H-pyrazol-4-yl)phenyl)piperidine-1-carbonyl)phenyl)cyclopentanecarboxamide]
16.2	100	9.12	6030	30.9	Cc1ccc(C(=O)N2CCC(c3ccc(-c4cnn(C)c4)cc3)CC2)cc1NC(=O)c1ccc(N(C)C(C)C)nc1 [Compound 92, 6-(Isopropyl(methyl)amino)-N-(2-methyl-5-(4-(4-(1-methyl-1H-pyrazol-4-yl)phenyl)piperidine-1-carbonyl)phenyl)nicotinamide]
